# Measured values reported in patent US4851411A, “5-monoaryl as.-triazin-3-ones substituted in 2-position, and their use as medicaments” (Pierre Fabre Medicament, priority 1986, dated 1989).
# Key:
# [1] = Anxiolytic activity, group of tests (LAB-X elevated plus-maze, SKINNER, VOGEL); format: in vivo, rat; conditions: 30 mg/kg by mouth
# Description: These compounds were also studied in order to test for anxiolytic activity using a group of tests
# (Ref.: LAB-X: Sh. Pellow, Ph. Chopin, S. E. File and M. Briley--Validation of open:closed arm entries in an elevated plus-maze as a measure of anxiety in the rat (Journal of Neuroscience Methods, 14 (1983), 149-167)
# SKINNER: GELLER and SEIFTER, Psychopharmacologia (1960) 1, 482-492
# [2] = Solubility; format: physicochemical
# [3] = test system: 5 HTP; assay: Potentialization of 5 HTP; format: in vivo
# Description: The tests used for the pharmacological screening are:
# the potentialization of 5 HTP (Ref.: Christensen, A. V. et al., Eur. J. of Pharm. (1977), 41, 153-162)
# [4] = Toxicity study in the mouse, oral single dose (LD50); format: in vivo; conditions: for toxicity: summary in conclusion
# Procedure: The toxicity study was carried out in the conventional mouse, weighing about 20 g.
# The substances were administered orally in a single dose of 300 and 1000 mg/kg respectively. At these doses we were not able to determine the LD50 's which are higher >1000 mg/kg.
Structure (SMILES),solubility in alcohols in the hot [2],solubility in chloroform [2],solubility in methylene chloride [2],solubility in water [2],solubility in ether [2],solubility in aqueous dilute acids ([2]; aqueous dilute acids),solubility in chlorinated solvents ([2]; chlorinated solvents),solubility in acetic acid ([2]; acetic acid),anxiolytic activity [1],ED50 [3],"LD50 ([4]; in vivo, mouse, oral, single dose)",toxicity [4],solubility in alcohols [2],solubility in benzene [2]
"COc1ccc(-c2cnn(CC(C)=O)c(=O)n2)cc1 [Example 1, 2-acetonyl 3-oxo 5-p-methoxyphenyl ax.-triazine]",–,–,–,–,–,–,–,–,significant results,25 mg/kg,> 3000 mg/kg,very low toxicity,–,–
"COc1ccc(-c2cnn(C(C)C(C)=O)c(=O)n2)cc1 (stereo not drawn) [Example 4, 2-alpha-methylacetonyl 3-oxo 5-p-methoxyphenyl as.-triazine]",–,Soluble,Soluble,insoluble,–,–,–,–,significant results,35 mg/kg,–,very low toxicity,–,–
"COc1ccc(-c2cnn(CC(N)=O)c(=O)n2)cc1 [Example 32, 2-N-acetamido 3-oxo 5-p-methoxyphenyl as.-triazine]",–,Insoluble,–,Insoluble,Insoluble,–,–,–,–,20 mg/kg,–,very low toxicity,Insoluble,–
"COc1ccc(-c2cnn(C(C(=O)c3ccccc3)c3ccccc3)c(=O)n2)cc1 (stereo not drawn) [Example 34, 2-N-desyl 3-oxo 5-p-methoxyphenyl as.-triazine]",Soluble,rather soluble,–,insoluble,poorly soluble,–,–,–,–,–,–,–,–,–
"COc1ccc(-c2cnn(C3CCOC3=O)c(=O)n2)cc1 (stereo not drawn) [Example 21, 2-γ-butyrolactone 3-oxo 5-p-methoxyphenyl as.-triazine]",–,Soluble,Soluble,insoluble,–,–,–,–,significant results,27 mg/kg,–,very low toxicity,poorly soluble,poorly soluble
"COc1ccc(C(=O)Cn2ncc(-c3ccc(OC)cc3)nc2=O)cc1 [Example 40, 2-p.methoxyphenacyl 3-oxo 5-p.methoxyphenyl as triazine]",–,–,–,Insoluble,–,–,–,Insoluble,–,–,–,–,Insoluble,–

# Continued, in another order:
solubility in alcohols in the hot [2],solubility in chloroform [2],solubility in methylene chloride [2],solubility in water [2],solubility in ether [2],solubility in aqueous dilute acids ([2]; aqueous dilute acids),solubility in chlorinated solvents ([2]; chlorinated solvents),solubility in acetic acid ([2]; acetic acid),Structure (SMILES),anxiolytic activity [1],ED50 [3],"LD50 ([4]; in vivo, mouse, oral, single dose)",toxicity [4],solubility in alcohols [2],solubility in benzene [2]
soluble,Soluble,Soluble,insoluble,–,–,–,–,"CC(C)C(=O)Cn1ncc(-c2ccccc2)nc1=O [Example 22, 2-(3-methyl-2-one butyl) 5-phenyl as.-triazine]",significant results,–,–,–,–,–
–,Soluble,Soluble,insoluble,insoluble,–,–,–,"COc1ccccc1-c1cnn(CC(C)=O)c(=O)n1 [Example 23, 2-acetonyl 3-oxo 5-o-methoxyphenyl as.-triazine]",–,50 mg/kg,–,–,–,–
–,insoluble,Soluble,insoluble,–,Soluble,–,–,"CC(=O)COc1ccc(-c2cnn(C)c(=O)n2)cc1 [Example 9, 2-methyl 3-oxo 5-p-acetonoxyphenyl as.-triazine]",significant results,40 mg/kg,–,–,–,–
–,–,–,insoluble,insoluble,–,Soluble,–,"CC(=O)Cn1ncc(-c2cccs2)nc1=O [Example 26, 2-acetonyl 3-oxo 5-γ-thienyl as.-triazine]",–,–,–,–,–,–
–,Soluble,–,insoluble,–,–,–,–,"CCOC(=O)CC(C(=O)OCC)n1ncc(-c2ccc(OC)cc2)nc1=O (stereo not drawn) [Example 27, 2-diethoxysuccinyl 3-oxo 5-p-methoxyphenyl as.-triazine]",–,–,–,–,Soluble,Soluble
